Measurements: patent US20070032464A1, “Methods of treating cancers” (priority 2004, published 2007)

What was measured:
[1] = molecular target: T1, liver X receptor beta (i.e., UR) (Rattus norvegicus, UniProt Q62755); test: gene transactivation (luciferase reporter) assay in human embryonic kidney 293 cells, liver X receptor beta (UR); assay type: cell-based; details: 1 to 10 μM
T1 sequence (Q62755 1-446): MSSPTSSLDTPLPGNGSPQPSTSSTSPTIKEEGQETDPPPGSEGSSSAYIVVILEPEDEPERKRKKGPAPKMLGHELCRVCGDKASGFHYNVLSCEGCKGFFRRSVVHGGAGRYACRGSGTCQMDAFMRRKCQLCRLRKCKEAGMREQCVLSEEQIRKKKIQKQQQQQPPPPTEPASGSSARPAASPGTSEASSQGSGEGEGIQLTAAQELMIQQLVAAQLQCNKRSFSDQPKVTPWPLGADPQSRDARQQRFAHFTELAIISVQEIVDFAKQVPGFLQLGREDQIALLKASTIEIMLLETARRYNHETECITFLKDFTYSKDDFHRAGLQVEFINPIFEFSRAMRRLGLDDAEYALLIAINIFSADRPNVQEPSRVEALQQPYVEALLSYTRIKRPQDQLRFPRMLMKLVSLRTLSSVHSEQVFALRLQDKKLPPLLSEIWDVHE
T1 sequence (P19793 1-462 partner): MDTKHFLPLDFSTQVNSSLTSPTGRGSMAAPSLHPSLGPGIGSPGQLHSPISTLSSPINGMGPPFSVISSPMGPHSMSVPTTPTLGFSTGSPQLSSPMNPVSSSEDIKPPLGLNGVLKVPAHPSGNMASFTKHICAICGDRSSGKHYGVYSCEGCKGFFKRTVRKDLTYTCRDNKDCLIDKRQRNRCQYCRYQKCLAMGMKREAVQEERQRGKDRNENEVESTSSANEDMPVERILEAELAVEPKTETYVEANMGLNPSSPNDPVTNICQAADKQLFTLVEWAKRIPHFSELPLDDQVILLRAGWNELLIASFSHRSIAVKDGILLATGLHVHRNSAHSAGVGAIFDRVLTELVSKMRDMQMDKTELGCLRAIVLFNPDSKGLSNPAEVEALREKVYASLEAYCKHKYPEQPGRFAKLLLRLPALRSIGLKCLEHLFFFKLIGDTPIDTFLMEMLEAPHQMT
Procedure: (§1) See, e.g., Song, C. et al., Steroids, 2000, 65, 423-427.
(§2) Specifically, human embryonic kidney 293 cells were seeded into a 48-well culture plate at 10^5 cells per well in a Dulbecco's modified Eagle's medium (DMEM) supplemented with 10% fetal bovine serum. After incubation for 24 hours, the cells were transfected by the calcium phosphate coprecipitation method with 250 ng of a pGL3/UREluc reporter gene that consisted of three copies of AGGTCAagccAGGTCA fused to nucleotides −56 to +109 of the human c-fos promoter in front of the firefly luciferase gene in the plasmid basic pGL3 (Promega, Madison, Wis.), 40 ng pSG5/hRXRα, 40 ng pSG5/rUR or CMX/hliver X receptorα, 10 ng pSG5/hGrip1, 0.4 ng CMV/R-luc (transfection normalization reporter, Promega) and 250 ng carrier DNA per well. […]
(§3) After incubation for another 12 to 24 hours, the cells were washed with phosphate buffer saline and then refed with DMEM supplemented with 4% delipidated fetal bovine serum. […] After incubation for another 24 to 48 hours, the cells were harvested and the luciferase activity was measured with a commercial kit (Promega Dual luciferase II) on a Monolight luminometer (Becton Dickenson, Mountain View, Calif.).

liver X receptor alpha = molecular target: T2, liver X receptor alpha (Homo sapiens, UniProt Q13133); test: gene transactivation (luciferase reporter) assay in human embryonic kidney 293 cells, liver X receptor alpha; assay type: cell-based; details: 1 to 10 μM
T2 sequence (Q13133 1-447): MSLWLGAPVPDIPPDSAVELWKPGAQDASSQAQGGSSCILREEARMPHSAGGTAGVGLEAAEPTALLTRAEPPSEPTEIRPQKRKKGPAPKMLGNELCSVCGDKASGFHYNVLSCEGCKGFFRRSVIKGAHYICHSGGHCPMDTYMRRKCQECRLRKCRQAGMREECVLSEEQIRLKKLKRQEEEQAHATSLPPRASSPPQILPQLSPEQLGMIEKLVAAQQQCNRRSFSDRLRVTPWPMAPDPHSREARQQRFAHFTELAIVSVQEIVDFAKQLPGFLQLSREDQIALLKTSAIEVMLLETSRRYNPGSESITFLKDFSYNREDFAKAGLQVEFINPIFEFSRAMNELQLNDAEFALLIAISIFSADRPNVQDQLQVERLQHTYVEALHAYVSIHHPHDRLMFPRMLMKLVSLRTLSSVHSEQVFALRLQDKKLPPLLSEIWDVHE
T2 sequence (P19793 1-462 partner): T1 sequence (P19793 1-462 partner)
Procedure: as §1, §2, §3

SMILES | liver X receptor beta (UR) agonistic activity [1] | liver X receptor alpha agonistic activity (liver X receptor alpha)
CC(CCC(O)(C(F)(F)F)C(F)(F)F)C1CCC2C3CC(O)C4CC(O)CCC4(C)C3CCC12C (stereo not drawn) [hypocholaride, 3α,6α,24-trihydroxy-5β-24,24-di(trifluoromethyl)-cholestane] | unexpectedly potent agonists | unexpectedly potent agonists
CON(C)C(=O)CC[C@@H](C)[C@H]1CC[C@H]2[C@@H]3C[C@H](O)[C@@H]4C[C@H](O)CC[C@]4(C)[C@H]3CC[C@]12C [hypocholamide, N-methyl-N-methoxy-3α,6α-dihydroxy-5β-cholanoic acid-24-amide] | unexpectedly potent agonists | unexpectedly potent agonists
